Assay results published in patent US20260138958A1, “SUBSTITUTED N-PHENYLURACILS AND SALTS THEREOF, AND USE THEREOF AS HERBICIDAL ACTIVE SUBSTANCES” (Bayer Aktiengesellschaft, priority 2022, published 2026).

What was measured:
Assay type in all cases: in vivo
[1] = test system: Polygonum convolvulus (POLCO); assay: Post-emergence herbicidal action, greenhouse pot test
Description: (§1) Seeds of monocotyledonous and dicotyledonous weeds and crop plants were placed in sandy loam in plastic or wood-fibre pots, covered with soil and cultivated in a greenhouse under controlled growth conditions. 2 to 3 weeks after sowing, the test plants were treated at the one-leaf stage. The compounds of the invention, formulated in the form of wettable powders (WP) or as emulsion concentrates (EC), were then sprayed onto the green parts of the plants as aqueous suspension or emulsion with addition of 0.5% additive at a water application rate of 600 l/ha (converted). After the test plants had been kept in the greenhouse under optimum growth conditions for about 3 weeks, the activity of the preparations was rated visually in comparison to untreated controls. For example, 100% activity=the plants have died, 0% activity=like control plants.

[2] = test system: Echinochloa crus-galli (ECHCG); assay: as above
Description: as §1

Lolium rigidum (LOLRI) = assay: as above
Description: as §1

[3] = test system: Abutilon theophrasti (ABUTH); assay: as above
Description: as §1

Setaria viridis (SETVI) = assay: as above
Description: as §1

Veronica persica (VERPE) = assay: as above
Description: as §1

[4] = test system: Pharbitis purpurea (PHBPU); assay: as above
Description: as §1

Bassia scoparia (KCHSC) = assay: as above
Description: as §1

[5] = test system: Tripleurospermum inodorum (MATIN); assay: as above
Description: as §1

[6] = test system: Digitaria sanguinalis (DIGSA); assay: as above
Description: as §1

Viola tricolor (VIOTR) = assay: as above
Description: as §1

[7] = test system: Amaranthus retroflexus (AMARE); assay: as above
Description: as §1

[8] = test system: Alopecurus myosuroides (ALOMY); assay: as above
Description: as §1

[9] = test system: Triticum aestivum (TRZAS); assay: Post-emergence crop plant compatibility, greenhouse pot test
Description: as §1
The observed effects on selected crop plants are reported here in comparison to the untreated controls (values in %).

Row | Structure (SMILES) | Post-emergence effect at 5 g/ha against ECHCG in % [2] | Post-emergence effect at 1.25 g/ha against ABUTH in % [3] | Post-emergence effect at 1.25 g/ha against SETVI in % (Setaria viridis (SETVI)) | Post-emergence effect at 1.25 g/ha against VERPE in % (Veronica persica (VERPE)) | Post-emergence effect at 1.25 g/ha against KCHSC in % (Bassia scoparia (KCHSC)) | Post-emergence effect at 5 g/ha against KCHSC in % (Bassia scoparia (KCHSC)) | Post-emergence effect at 20 g/ha against KCHSC in % (Bassia scoparia (KCHSC)) | Post-emergence effect at 5 g/ha against DIGSA in % [6] | Post-emergence effect at 20 g/ha against DIGSA in % [6] | Post-emergence effect at 1.25 g/ha against VIOTR in % (Viola tricolor (VIOTR)) | Post-emergence effect at 5 g/ha against VIOTR in % (Viola tricolor (VIOTR)) | Post-emergence effect at 20 g/ha against POLCO in % ([1]; 20 g/ha) | Post-emergence effect at 20 g/ha against ECHCG in % ([2]; 20 g/ha) | Post-emergence effect at 20 g/ha against ABUTH in % ([3]; 20 g/ha) | Post-emergence effect at 5 g/ha against SETVI in % (Setaria viridis (SETVI); 5 g/ha) | Post-emergence effect at 20 g/ha against SETVI in % (Setaria viridis (SETVI); 20 g/ha) | Post-emergence effect at 5 g/ha against VERPE in % (Veronica persica (VERPE); 5 g/ha) | Post-emergence effect at 20 g/ha against VERPE in % (Veronica persica (VERPE); 20 g/ha) | Post-emergence effect at 5 g/ha against PHBPU in % ([4]; 5 g/ha) | Post-emergence effect at 20 g/ha against PHBPU in % ([4]; 20 g/ha) | also measured
1 | CC(OC(=O)COc1ccccc1Oc1cc(-n2c(=O)cc(C(F)(F)F)n(C)c2=O)c(F)cc1Cl)C1CC1 (stereo not shown) [I.7-2, 1-Cyclopropylethyl (2-{2-chloro-4-fluoro-5-[3-methyl-2,6-dioxo-4-(trifluoromethyl)-3,6-dihydropyrimidin-1(2H)-yl]phenoxy}phenoxy)acetate] | 100% | 80% | 100% | 100% | 100% | 100% | 100% | 100% | 100% | 100% | 100% |  |  |  |  |  |  |  |  |  | pest or weed control at 5 g/ha ([1]; Fallopia convolvulus, 504 h, 5 g/ha, read-out: Post-emergence effect at 5 g/ha against POLCO in %): 100%; pest or weed control at 20 g/ha ([1]; Fallopia convolvulus, 504 h, 20 g/ha, read-out: Post-emergence effect at 20 g/ha against POLCO in %): 100%; pest or weed control at 20 g/ha ([2]; Echinochloa crus-galli, 504 h, 20 g/ha, read-out: Post-emergence effect at 20 g/ha against ECHCG in %): 100%; Post-emergence effect at 20 g/ha against LOLRI in % (Lolium rigidum (LOLRI)): 100%; pest or weed control at 5 g/ha ([3]; Abutilon theophrasti, 504 h, 5 g/ha, read-out: Post-emergence effect at 5 g/ha against ABUTH in %): 100%; pest or weed control at 20 g/ha ([3]; Abutilon theophrasti, 504 h, 20 g/ha, read-out: Post-emergence effect at 20 g/ha against ABUTH in %): 100%; pest or weed control at 5 g/ha (Setaria viridis (SETVI); Setaria viridis, 504 h, 5 g/ha, read-out: Post-emergence effect at 5 g/ha against SETVI in %): 100%; pest or weed control at 20 g/ha (Setaria viridis (SETVI); Setaria viridis, 504 h, 20 g/ha, read-out: Post-emergence effect at 20 g/ha against SETVI in %): 100%; pest or weed control at 5 g/ha (Veronica persica (VERPE); Veronica persica, 504 h, 5 g/ha, read-out: Post-emergence effect at 5 g/ha against VERPE in %): 100%; pest or weed control at 20 g/ha (Veronica persica (VERPE); Veronica persica, 504 h, 20 g/ha, read-out: Post-emergence effect at 20 g/ha against VERPE in %): 100%; pest or weed control at 5 g/ha ([4]; Ipomoea purpurea, 504 h, 5 g/ha, read-out: Post-emergence effect at 5 g/ha against PHBPU in %): 100%; pest or weed control at 20 g/ha ([4]; Ipomoea purpurea, 504 h, 20 g/ha, read-out: Post-emergence effect at 20 g/ha against PHBPU in %): 100%; pest or weed control at 20 g/ha ([5]; Tripleurospermum inodorum, 504 h, 20 g/ha, read-out: Post-emergence effect at 20 g/ha against MATIN in %): 100%; Post-emergence effect at 1.25 g/ha against DIGSA in % ([6]; 1.25 g/ha): 100%; pest or weed control at 20 g/ha (Viola tricolor (VIOTR); Viola tricolor, 504 h, 20 g/ha, read-out: Post-emergence effect at 20 g/ha against VIOTR in %): 100%; pest or weed control at 1.25 g/ha ([7]; Amaranthus retroflexus, 504 h, 1.25 g/ha, read-out: Post-emergence effect at 1.25 g/ha against AMARE in %): 100%; pest or weed control at 5 g/ha ([7]; Amaranthus retroflexus, 504 h, 5 g/ha, read-out: Post-emergence effect at 5 g/ha against AMARE in %): 100%; pest or weed control at 20 g/ha ([7]; Amaranthus retroflexus, 504 h, 20 g/ha, read-out: Post-emergence effect at 20 g/ha against AMARE in %): 100%; pest or weed control at 20 g/ha ([8]; Alopecurus myosuroides, 504 h, 20 g/ha, read-out: Post-emergence effect at 20 g/ha against ALOMY in %): 80%; Post-emergence effect at 1.25 g/ha against TRZAS in % ([9]; Triticum aestivum, in vivo): 10%
2 | Cn1c(C(F)(F)F)cc(=O)n(-c2cc(Oc3ccccc3OCC(=O)OCC3(C)CC3)c(Cl)cc2F)c1=O [I.7-5] | 100% | 100% | 100% | 100% | 100% | 100% | 100% | 100% | 100% | 100% | 100% | 100% | 100% | 100% | 100% | 100% | 100% | 100% | 100% | 100% | Post-emergence effect at 5 g/ha against ABUTH in % ([3]; 5 g/ha): 100%; Post-emergence effect at 1.25 g/ha against PHBPU in % ([4]; 1.25 g/ha): 100%; Post-emergence effect at 5 g/ha against MATIN in % ([5]; 5 g/ha): 100%; Post-emergence effect at 20 g/ha against MATIN in % ([5]; 20 g/ha): 100%; Post-emergence effect at 20 g/ha against VIOTR in % (Viola tricolor (VIOTR); 20 g/ha): 100%; Post-emergence effect at 1.25 g/ha against AMARE in % ([7]; 1.25 g/ha): 100%; Post-emergence effect at 5 g/ha against AMARE in % ([7]; 5 g/ha): 100%; Post-emergence effect at 20 g/ha against AMARE in % ([7]; 20 g/ha): 100%; Post-emergence effect at 5 g/ha against ALOMY in % ([8]; 5 g/ha): 80%; Post-emergence effect at 20 g/ha against ALOMY in % ([8]; 20 g/ha): 100%
3 | CC(OC(=O)COc1ccccc1Oc1cc(-n2c(=O)cc(C(F)(F)F)n(C)c2=O)c(F)cc1Cl)C1CCCCC1 (stereo not shown) [I.7-15] | 90% |  |  | 80% |  | 100% | 100% |  | 100% |  | 100% | 100% | 100% | 100% | 100% | 100% | 100% | 100% | 100% | 100% | Post-emergence effect at 20 g/ha against VIOTR in % (Viola tricolor (VIOTR); 20 g/ha): 100%; Post-emergence effect at 1.25 g/ha against AMARE in % ([7]; 1.25 g/ha): 100%; Post-emergence effect at 5 g/ha against AMARE in % ([7]; 5 g/ha): 100%; Post-emergence effect at 20 g/ha against AMARE in % ([7]; 20 g/ha): 100%; Post-emergence effect at 20 g/ha against ALOMY in % ([8]; 20 g/ha): 80%; Post-emergence effect at 1.25 g/ha against TRZAS in % ([9]; crop plant, post-emergence, 1.25 g/ha): 20%
